Data reported in patent publication US9199885B2, “Utilization of iron salts to stabilize and/or disinfect biosolids” (The Administrators of the Tulane Educational Fund, priority 2013, dated 2015).

Experiments:
[1] = ORP of treated heat-dried biosolids; format: physicochemical; settings: post treatment
Protocol: After the heat drying process, the product was tested for total solids contents. Based on the results, a 2% solution of said product in effluent was made and poured into 600 mL narrow neck glass bottles, along with a seeding of 3000 mg/L for each bottle. The system was then sealed and set up in a 20° C. water bath for real time monitoring on oxygen uptake for 96 hours. pH and ORP values were assessed at the beginning and the end of the tests.

[2] = test system: return activated sludge (RAS) seed microorganisms; experiment: Aerobic respirometry: specific oxygen uptake rate (SOUR) of iron-dosed, heat-dried biosolids; settings: for time until SOUR reached below the stable criteria requirement: 1.5% ferrate as iron by TS
Protocol: Thickened sewage sludge was poured into ster[…] & Bird B-Ker polycarbonate jars with a sampling port for flash mixing and flocculation in amounts of 1 L to 2 L. The ferric chloride/ferrate dose was delivered by syringe to the jar test beakers. The ferric chloride dose was calculated by obtaining the total solids content of the sludge sample first and taking 2% of the result. The ferrate dose was calculated after computing the final synthesized concentration of ferrate in buffer solution. Both the ferrate and ferric chloride doses were based on mass rather than volume. The ferrate solution strength was calculated based on mass instead of volume to minimize errors in the dose calculations; these errors are associated with off-gases from the ferrate solution changing the volume of ferrate within the syringe. Of the six jars, one jar of raw sludge served as the control and five jars were used to test various dosages. The ferric chloride was added first while the sludge samples were mixed at a speed of 300 rpm; after thorough mixing (about 10 minutes), the ferrate was added and the mixture was mixed at 300 rpm for about 10 minutes until thoroughly mixed. Well-mixed sludge was then transferred into centrifuge tubes and centrifuged, and then the settled solids were collected and spread on a baking pan and heat dried for about 30 minutes. Batch respirometer tests were conducted by dosing microbial culture with an amount of organic chemical or wastewater followed by monitoring the reactions through measurement of oxygen uptake in aerobic tests or gas production in anoxic and methanogenic tests. Batch tests are transient, non-steady-state reactions in which both substrate and biomass concentrations change throughout the biodegradation reaction. The procedures generally involve the following steps. A sample of wastewater or solution of test chemicals is placed in each of a number of respirometer vessels. Nutrients and trace minerals are added in amounts sufficient to support biological growth and a buffer is added to maintain the pH within an acceptable range. A seed culture is added to provide microorganisms that can degrade the organic constituents in the test samples. A caustic scrubber is suspended within the headspace of the reaction vessel to absorb carbon dioxide (only in instruments using headspace oxygen transfer), and chemicals are added to inhibit nitrification in cases where only aerobic carbonaceous oxidation reactions are to be monitored. The reaction vessels are attached to a device suitable for measuring oxygen uptake or gas production, and oxygen uptake or gas production is measured over time periods ranging from a few minutes to 90 days, depending on the test objectives. The aerobic conditions of respirometry assessments were designed to simulate the scenario that the treated biosolids were fully seeded with an unlimited oxygen supply. The anaerobic conditions mimicked fully seeded biosolids without oxygen. The return activated sludge from the New Orleans' POTW was used as seed for its already acclimated microorganisms. For the same reasons, the effluent was selected as the dilution water to increased moisture content. After the heat drying process, the product was tested for total solids contents. […] The system was then sealed and set up in a 20° C. water bath for real time monitoring on oxygen uptake for 96 hours. pH and ORP values were assessed at the beginning and the end of the tests. The sludge was thickened to achieve a 5% solids content level. After the addition of ferric chloride, ferrate or both followed by centrifugation, the sludge cake was placed in an oven at 80° C. for 30 minutes to mimic the heat drying process. The dried sludge was then tested for stability by adding 98%-99% of moisture content. There were three exogenous variables: buffer, feed and seed. The buffer was 1.5M KH2PO4 at pH 7.0. […]

biomass = settings: endogenous respiration, no added oxygen or substrate; cited from earlier work

Compound | ORP levels in the biosolids [1] | stabilization (SOUR) ([2]; 1.3% ferrate as the iron dose, buffer, seed and feed in respirometer) | time until SOUR reached below the stable criteria requirement ([2]; moisture content 98%) [h] | time until SOUR reached below the stable criteria requirement ([2]; moisture content 99%) [h] | stabilization (SOUR) ([2]; ferrate dosages 1.2% to 4.9%, not neutralized with buffer (pH higher than 10), acetate and seed added) | stimulation of biomass during dosing (biomass) | stability of heat-dried biosolids ([2]; 1.4% to 1.5% ferric chloride, seeded) | SOUR ([2]; 1.4% to 1.5% ferric chloride, seeded, for 5 to 10 hours) [mg O2/h/g TS] | time heat-dried biosolids observed to be stable ([2]; dose larger than 2.3% ferric chloride, seeded) | stability of heat-dried biosolids ([2]; ferric chloride-treated, seed not added) | stability of heat-dried biosolids ([2]; with addition of seed, ferric chloride doses less than 2.3%)
[O]=[Fe](=[O])([O-])[O-] [ferrate] | around 0.1 V | no stabilization | 5 | 9 | stable biosolids |  |  |  |  |  | 
[Cl][Fe]([Cl])[Cl] [ferric chloride] | around 0.1 V |  |  |  |  | did not stimulate the biomass | not stable | > 1.5 | at least 2 days | stable | not stable
O=S(=O)([O-])[O-].[Fe+2] [ferrous sulphate] |  |  |  |  |  | did not stimulate the biomass |  |  |  |  | 
